In the assay the test system is NCI-H1876 complex spheroid viability. Briefly: Anticancer human tumor NCI-H1876 cell line growth inhibition [LSD1].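 For all read-outs here: spheroids exposed to compounds for one week before readout.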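 For viability, T/C: 100% = DMSO vehicle-treated spheroids so lower means fewer viable cells.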 To be noted: for viability, T/C: stronger effect = lower value; for pIC50: curve of compound. The text has this: Multicellular complex tumor spheroid response to LSD1 Inhibitor Iadademstat in combination with a variety of drugs and investigational agents in selected tumor cell lines
The current study was undertaken to assess response to LSD1 inhibitors in combination with standard-of-care drugs and investigational agents in solid tumor complex spheroid models as well as in the K-562 leukemia. Complex spheroids include a stromal component modeled by human endothelial cells (HUVEC) and fibroblasts modeled by human mesenchymal stem cells (MSCs). The concentration ranges selected for each drug and investigational agent were based upon clinically achievable concentrations if the clinical Cmax of the agent was known.
Compounds. The drugs and investigational agents used in this study are listed on Table 1. All of the agents used, including staurosporine (NSC755774) and gemcitabine (NSC613327), were obtained from the Developmental Therapeutics Program, NCI. FDA-approved anticancer drugs are available from the NCI at http://dtp.nci.nih.gov/branches/dscb/oncology_drugset_explanation.html. Drugs and investigational agents were >95% pure by proton nuclear magnetic resonance (NMR) and liquid chromatography/mass spectrometry (LC/MS). Stock solutions were prepared at 400x in DMSO, stored at -70 degrees C, and diluted in fresh medium prior to their use. The final concentration of DMSO in cell culture wells never exceeded 0.25% (v/v). The FDA-approved anticancer drug set is available from the Developmental Therapeutics Program at https://dtp.cancer.gov/organization/dscb/obtaining/available_plates.htm. All drugs and investigational agents were tested over a range starting from a high concentration at or near the clinical Cmax and decreasing in half-log increments. If the clinical Cmax for an agent had not been determined, the highest concentration tested was 10 microM.
Cell Lines. The patient-derived cancer cell (PDC) lines: 292921-168-R-J2-PDC, K24384-001-R-PDC, and 521955-158-R2-J5-PDC pancreatic carcinomas, 556581-035-R-J1 ovarian carcinoma, 324938-238-R-J1-PDC, 855422-203-R-J1-PDC and 883617-216-R-J1-PDC urothelial bladder carcinomas, 743489-274-T-PDC renal cell carcinoma, 138582-R-J1 Merkel cell tumor, K60290-347-R-J1 and K57222-313-R-J1-PDC glioblastomas, 653999-131-R-J2-PDC, LG0703-F948-PDC, and 349418-098-R-PDC non-small cell lung carcinomas, 885512-296-R-J2-PDC, 171881-019-R-J1-PDC breast carcinomas and 186277-243-T-J2-PDC and 233499-124-R-J2-PDC colon carcinomas were obtained from the NCI Patient-Derived Models Repository (PDMR, https://pdmr.cancer.gov). The established cell lines NCI/ADR-RES (RRID:CVCL_14520 and OVCAR-5 (RRID:CVCL_1628) ovarian carcinomas, 786-O (RRID:CVCL_1051) and A498 (RRID:CVCL_A498) renal cell carcinoma, NCI-H211 (ATCC, cat. CRL-5824; RRID:CVCL_1529), NCI-H196 (ATCC, cat. CRL-5823, RRID:CVCL_1509), SW 1271 (ATCC, cat. CRL-2177, RRID:CVCL_1716) and NCI-H1876 (ATCC, cat. CRL-5902, RRID:CVCL_1503) small cell lung carcinomas, MDA-MB-231 (RRID:CVCL_0062) and MDA-MB-468 (RRID:CVCL_0419)breast carcinomas (10-12). Pooled donor human umbilical vein endothelial cells (HUVEC, Lonza, cat. CC-2519) and human mesenchymal stem cells (hMSC, Lonza, cat. PT-2501) were purchased from Lonza (Walkersville, MD).
Cell Culture. All cells were maintained in an incubator at 37 degrees C and 5% CO2 with 95% humidity. The PDC lines were cultured according to standard operating procedures established by the NCI PDMR (https://pdmr.cancer.gov). Briefly all PDCs were thawed and cultured in Matrigel-coated flasks prepared with a working solution of 1X Ham's F-12 nutrient mix, without supplementation (Invitrogen, Waltham, MA, cat. 11765054), 100 U/mL penicillin-streptomycin (Invitrogen, cat. 15140122), and 2.5% Matrigel (Corning Inc., Corning, NY, cat. 354248) for the first three passages. […]

From PubChem BioAssay AID1918957 (Molecular Pharmacology Branch, DTP, NCI, 2023) come the findings set out here.

pIC50: −log10 of the molar value. Several values for one entry are separate records, joined by “and”; a condition that tells them apart may be missing. Identical values can stand only once.

As a reminder, the viability, T/C is the result in the treated group divided by that in the control group, in per cent. Broadly, the pIC50 is the IC50 on a negative log10 scale, so that one unit is a factor of ten. In the case of `CC(C)CC(NC(=O)C(Cc1ccccc1)NC(=O)c1cnccn1)B(O)O` (stereo not drawn), the pIC50 was 9.25 and 9.34. The viability, T/C (compound 0.000316 µM) is 84% and 74.3%. The viability, T/C (compound 0.001 µM) is 15.6% and 0.43%. In addition, the viability, T/C (compound 0.00316 µM) is 8.34% and 0.27%. Further, the viability, T/C (compound 0.01 µM) is 17.3% and 0.26%. In addition, the viability, T/C (compound 0.0316 µM) is 7.7% and 0.24%. Also, where the note is “compound 0.1 µM”, the viability, T/C was 13.9% and 0.31%.
As to `CC(C)CC(NC(=O)CNC(=O)c1cc(Cl)ccc1Cl)B1OC(=O)CC(CC(=O)O)(C(=O)O)O1` (stereo not drawn), the pIC50 is 7.99 and 8.11. The viability, T/C (compound 0.000316 µM) is 102% and 97.5%. In addition, the viability, T/C (compound 0.001 µM) was 98.9% and 91.9%. Where the note is “compound 0.00316 µM”, the viability, T/C was 90.3% and 96%. Moreover, the viability, T/C (compound 0.01 µM) is 52.4% and 36.7%. In addition, the viability, T/C (compound 0.0316 µM) was 7.69% and 2.11%. Under “compound 0.1 µM”, the viability, T/C is 15.7% and 0.34%.
`CC1(C)CCC(CN2CCN(c3ccc(C(=O)NS(=O)(=O)c4ccc(NCC5CCOCC5)c([N+](=O)[O-])c4)c(Oc4cnc5[nH]ccc5c4)c3)CC2)=C(c2ccc(Cl)cc2)C1`: the pIC50 was 5.64 and 5.68. Also, for the setting “compound 0.0316 µM”, the viability, T/C is 101% and 99.5%. Under “compound 0.1 µM”, the viability, T/C is 101% and 94.4%. Moreover, for the setting “compound 0.316 µM”, the viability, T/C is 101% and 110%. Also, the viability, T/C (compound 1 µM) was 95.4% and 107%. The viability, T/C (compound 3.16 µM) was 31.8% and 19.4%. In addition, under “compound 10 µM”, the viability, T/C is 9.13% and 6.87%.
In the case of `CC1COCCN1c1cc(-c2ccnn2C)c2ccnc(-c3ccn[nH]3)c2n1` (stereo not drawn), the pIC50 is 7.84 and > 8.50. The viability, T/C (compound 0.00316 µM) is 64.3% and 45%. Further, the viability, T/C (compound 0.01 µM) is 59.2% and 33.4%. In addition, under “compound 0.0316 µM”, the viability, T/C was 32.8% and 13.7%. Also, where the note is “compound 0.1 µM”, the viability, T/C was 19.8% and 4.72%. In addition, under “compound 0.316 µM”, the viability, T/C is 10% and 3.12%. For the same molecule, under “compound 1 µM”, the viability, T/C was 12.8% and 4.1%.
Take `CCN(c1cc(-c2ccc(CN3CCOCC3)cc2)cc(C(=O)NCc2c(C)cc(C)[nH]c2=O)c1C)C1CCOCC1`: the pIC50 was below 5.52. Also, the viability, T/C (compound 0.00949 µM) was 104% and 108%. The viability, T/C (compound 0.03 µM) is 97.2% and 107%. Further, the viability, T/C (compound 0.0949 µM) is 104% and 96.1%. Under “compound 0.3 µM”, the viability, T/C is 101% and 96.2%. The viability, T/C (compound 0.949 µM) is 82.7% and 79.5%. Besides, the viability, T/C (compound 3 µM) is 55.7% and 54.8%.
Regarding `CC[C@@]1(O)C(=O)OCc2c1cc1n(c2=O)Cc2cc3c(CN(C)C)c(O)ccc3nc2-1`, the pIC50 is 8.65 and 8.77. The viability, T/C (compound 0.000316 µM) was 94% and 106%. In addition, the viability, T/C (compound 0.001 µM) was 86.2% and 81.2%. Moreover, the viability, T/C (compound 0.00316 µM) was 33.5% and 14.2%. For the same molecule, the viability, T/C (compound 0.01 µM) was 27.7% and 10.6%. Also, the viability, T/C (compound 0.0316 µM) was 19.8% and 6.98%. Where the note is “compound 0.1 µM”, the viability, T/C is 15.5% and 4.68%.
For `CCc1c2c(nc3ccc(O)cc13)-c1cc3c(c(=O)n1C2)COC(=O)[C@]3(O)CC`, the pIC50 was above 9.02. For the setting “compound 0.000949 µM”, the viability, T/C was 8.16% and 5.21%. The viability, T/C (compound 0.003 µM) is 6.7% and 3.21%. Under “compound 0.00949 µM”, the viability, T/C is 3.77% and 1.73%. In addition, the viability, T/C (compound 0.03 µM) is 0.82% and 0.45%. Moreover, the viability, T/C (compound 0.0949 µM) was 0.56% and 0.42%. Also, where the note is “compound 0.3 µM”, the viability, T/C is 0.51% and 0.41%.
Consider `COc1cc(C2c3cc4c(cc3C(OC3OC5COC(C)OC5C(O)C3O)C3COC(=O)C23)OCO4)cc(OC)c1O` (stereo not drawn), for which the pIC50 is 7.27 and 7.42. Further, under “compound 0.00949 µM”, the viability, T/C was 85.4% and 93.8%. Moreover, the viability, T/C (compound 0.03 µM) was 69.1% and 57.3%. For the same molecule, the viability, T/C (compound 0.0949 µM) is 30.5% and 20.9%. Where the note is “compound 0.3 µM”, the viability, T/C is 32.1% and 11.1%. Besides, the viability, T/C (compound 0.949 µM) was 26.4% and 8.9%. Under “compound 3 µM”, the viability, T/C is 11.7% and 9%.
Regarding `COc1cc(Nc2ncc3c(n2)-c2ccc(Cl)cc2C(c2c(F)cccc2OC)=NC3)ccc1C(=O)O`, the pIC50 was 7.65 and 7.48. The viability, T/C (compound 0.00316 µM) is 66.5% and 69.5%. Further, the viability, T/C (compound 0.01 µM) was 54% and 64.2%. Further, the viability, T/C (compound 0.0316 µM) was 45.4% and 48.2%. The viability, T/C (compound 0.1 µM) was 42.4% and 38.4%. The viability, T/C (compound 0.316 µM) is 37.3% and 31.5%. The viability, T/C (compound 1 µM) was 28.3% and 19.5%.
